The values below come from patent US20240325385A1, “ANTI-TUMOR PHARMACEUTICAL COMPOSITION COMPRISING EZH2 INHIBITOR AND SCD1 INHIBITOR AND USE THEREOF” (PEKING UNIVERSITY THIRD HOSPITAL, priority 2021, published 2024).

Entries after “also recorded” stand apart in the source; their conditions may differ.

Experiment [1] deals with melanoma B16F10 cells. Nature of the experiment: IncuCyte S3 live-cell proliferation (confluence), B16F10. Type of experiment: cell-based. The method, then:
(§1) FIG. 1: Hematological tumors are more sensitive to GSK126 than solid tumors. (A) Proliferation of B16F10, Huh7 and SMMC7721 cells in GSK126 (10-20 μM) treatment group was monitored by Incucyte S3, with 6 replicates per group; (B) viability of Daudi and THP-1 cells after GSK126 (200 nM-24 μM) treatment for 24 h and 48 h was measured by CCK-8 assay, with 5 replicates per group; (C) western blot analysis (WB) of B16F10 cells 48 h after the treatment without or with GSK126 (6 μM, 12 μM), with H3 used as an internal reference for histone. 5 to 6 replicates were established for each group, with *P<0.05, **P<0.01, and ***P<0.001, and ns for no statistical difference.
(§2) In order to accurately assess the responsiveness of solid tumor cells to EZH2 inhibitors, the effects of GSK126 at different concentrations on the proliferation of melanoma B16F10 cells and hepatoma Huh7 and SMMC-7721 cells were initially detected by IncuCyte S3×Live-Cell Analysis System.
(§3) • (1) Cells in the logarithmic growth phase were digested with 0.25% trypsin and the digestion was terminated by the addition of serum-containing medium. It was then centrifuged at 200 g for 5 min; • (2) The single cell suspension at the corresponding concentration was prepared by a microscopic counting method, and then added into a 96-well culture plate, so that the volume of the culture medium in each well was 150 μL (about 5000 cells). […]

In experiment [2] the test system is hepatoma Huh7 cells. Nature of the experiment: IncuCyte S3 live-cell proliferation (confluence), Huh7. Type of experiment: cell-based. The protocol:
as §1, §2, §3

The test system of experiment [3] is hepatoma SMMC-7721 cells. Nature of the experiment: IncuCyte S3 live-cell proliferation (confluence), SMMC-7721. It counts as cell-based. The protocol: as §1, §2, §3
Experiment [4] has as its system Burkitt lymphoma cells (Daudi). Nature of the experiment: CCK-8 cell proliferation/viability assay, Daudi. It counts as cell-based. To be noted: for cell viability inhibited by GSK126, on fatty acid supplementation: with GSK126, CCK-8. The protocol:
as §1
(§4) FIG. 5: Effect of GSK126 on the metabolic profile of Daudi cells. (A) Orthogonal partial least squares discriminant analysis (OPLS-DA) score plot based on metabolic analysis (6 replicates per group). C: control, G: GSK126 treatment. (B) Score plot for validating the OPLS-DA model (R2Y=0.973; Q2Y=0.931). (C) The number of metabolites of each category in metabolomics. […] (E) Viability of Daudi cells after palmitic acid treatment was analyzed by CCK-8 kit (3 replicates per group). 3-6 replicates per group, *P<0.05, **P<0.01.
(§5) FIG. 6: The combination with an SCD1 inhibitor enhances the inhibitory effect of GSK126 on cancer cells. (A) Differential metabolites between DMSO and GSK126-treated Daudi cells. […] Metabolite categories are shown in different colors. […] (C) The mRNA levels of lipid metabolism genes in GSK126-treated Daudi cells were detected by RT-qPCR (3 replicates per group). (D) Viability of GSK126 and palmitinic acid-treated Daudi cells was analyzed by CCK-8 assay kit (5 replicates per group). (E) Viability of GSK126 and stearic acid-treated Daudi cells was analyzed by CCK-8 assay kit (5 replicates per group). (F) Proliferation curves of B16F10 and SMMC7721 cells treated with GSK126 and MF-438 were monitored by IncuCyte S3 (5 replicates per group). (G) CCK-8 assay kit detects the viability of B16F10 and SMMC7721 cells treated with GSK126 and MF-438. CI is calculated by CompuSyn software. CI<0.9 indicates synergism and CI>1.1 indicates antagonism. (H) Schematic diagram of mouse tumor-bearing experiment. (I-J) Tumor weight (I) and tumor growth curve (J) of the mice loaded with B16F10 cells. The tumor volume was measured with a vernier caliper every 2 days. Tumor volume=(length*width*width)/2. (K) Representative tumor pictures of all experimental groups. 3-8 replicates per group, *P<0.05, **P<0.01, ***P<0.001.

Experiment [5] deals with hematological tumor cells THP-1. Nature of the experiment: CCK-8 cell proliferation/viability assay, THP-1. Type of experiment: cell-based. To be noted: 10 μM, 24 h and 48 h. The protocol:
as §1

Experiment [6] relates to H3K27me3 level in B16F10 cells. Nature of the experiment: Western blot of H3K27me3 in B16F10 cells. It counts as cell-based. The settings on record: 6 μM, 48 h, WB. The protocol: as §1
(A western blot detects proteins with antibodies after separation by electrophoresis.)

Experiment [7] deals with melanoma cells B16F10. Nature of the experiment: Cell scratch (migration) assay, B16F10. Type of experiment: cell-based. To be noted: B16F10, 10 μM, 36 h of culture, vs control group. The method, then: (§6) FIG. 2: Melanoma cells B16F10 are less sensitive to GSK126. (A) Cell scratch assay, showing the effect of GSK126 (10 μM) treatment on the migration capability of B16F10 cells, with 3 replicates per group; (B-C) the effect of GSK126 (10, 13, and 15 μM) on the apoptosis rate of B16F10 cells, as examined by flow cytometry […] and Annexin V staining assay. 3 replicates were established for each group, with *P<0.05, **P<0.01, and ***P<0.001, and ns for no statistical difference.
(§7) Next, to further validate the effect of GSK126 at 10 μM on melanoma cells B16F10, scratch assay was conducted. […] In addition, to assess the anti-survival effect of GSK126, B16F10 cells were treated by GSK126 at different concentrations for different durations, and the apoptosis rate of the cells was analyzed by flow cytometry (section B of FIG. 2) and live-cell fluorescence imaging (section C of FIG. 2).

The subject of experiment [8] is B16F10 cells. Nature of the experiment: Apoptosis by flow cytometry and Annexin V live-cell imaging, B16F10. It counts as cell-based. The settings on record: B16F10, 10 μM. The method, then:
as §6, §7

The subject of experiment [9] is melanoma B16F10 cells. Nature of the experiment: Metabolite (fatty acid) levels in GSK126-treated B16F10 cells. Type of experiment: cell-based. The settings on record: GSK126 group. From the text:
FIG. 3: GSK126 results in significant elevated levels of 6 fatty acids in melanoma B16F10 cells.
Among the metabolites with significant changes, the levels of many fatty acids increased in the GSK126 group. There are five polyunsaturated fatty acids, including α-linolenic acid, DHA, EPA, linoleic acid, and γ-linolenic acid) and one monounsaturated fatty acid, i.e., 10Z-heptadienoic acid (FIG. 3).

For experiment [10], the system named is ACLY, FASN, and SCD in SMMC7721. Nature of the experiment: RT-qPCR and WB of fatty acid synthesis genes, SMMC7721. Type of experiment: cell-based. From the text: (§8) FIG. 4: Lipid accumulation in mice after GSK126 treatment. (A) H & E and oil red O staining of the liver tissue sections of the tumor-bearing mice in the control group and the GSK126 treatment group, in which the statistical results of negative or positive staining area were shown on the right (3 replicates per group); (B) TG level in the serum of the tumor-bearing mice in the control group and the GSK126 treatment group (5 replicates per group); (C-D) mRNA (C) and protein (D) levels of the genes related to fatty acid anabolism in the GSK126-treated HCC cells, as detected by RT-qPCR and WB (3 replicates per group). 3 to 5 replicates were established for each group, with *P<0.05, **P<0.01.
(§9) C57BL/6 mice of 6-8 weeks old were subcutaneously implanted with B16F10 cells and treated with GSK126 again. […] Therefore, the expression of the fatty acid synthesis-related genes in GSK126-treated hepatocellular carcinoma (HCC) cell lines SMMC7721 and Huh7 was further detected.
(In general: Quantitative PCR measures a nucleic acid by following its amplification.)

Experiment [11] concerns ACLY, FASN, and SCD in Huh7. Nature of the experiment: RT-qPCR and WB of fatty acid synthesis genes, Huh7. Type of experiment: cell-based.
Source text: as §8, §9

Experiment [12] concerns Daudi cells. Nature of the experiment: UPLC-MS/MS metabolomics of Daudi cells. It counts as cell-based. The settings on record: GSK126 6 μM vs control. The protocol: as §4, §5
In order to verify that the lipid metabolism of cancer cells is the key factor affecting the sensitivity of the EZH2 inhibitor, UPLC-MS/MS system was used to analyze the metabolomics of the Daudi cells treated with GSK126 at a concentration of 6 μM (close to the IC50 value). The differences in the metabolome between the cells in the control group and the GSK126 treatment group were obvious by OPLS-DA analysis (sections A and B of FIG. 5). There were 71 metabolites with significant changes and VIP values greater than 1.0.

Experiment [13] concerns ELOVL2, SCD1, and FASN in Daudi cells. Nature of the experiment: RT-qPCR of lipid metabolism genes in Daudi cells. Type of experiment: cell-based. The settings on record: mRNA. The method, then:
as §5, with “***P<0.001. […]” for “***P<0.001.”

For experiment [14], the system named is hematologic cancer cell lines. To be noted: most hematologic cancer cell lines; many studies; read-out: IC50 (half-maximal inhibitory concentration); cited from earlier work.
Setting [15] is: GSK126 at different concentrations (10-20 μM).

For `CC[C@H](C)n1cc(C)c2c(C(=O)NCc3c(C)cc(C)[nH]c3=O)cc(-c3ccc(N4CCNCC4)nc3)cc21` [GSK126], the cell proliferation entry in experiment [1] (GSK126 10 μM) is “less effective; also recorded: could not be effectively inhibited”; in experiment [1] (setting [15]) it was “inhibited cell proliferation in a dose-dependent manner”; in [2] (GSK126 10 μM) it was “less effective”; in experiment [2] (setting [15]), “inhibited cell proliferation in a dose-dependent manner”; in [3] (GSK126 10 μM), “less effective”; in experiment [3] (setting [15]) it was “inhibited cell proliferation in a dose-dependent manner”. The “sensitivity of Daudi cells” value in [4] (1 μM, CCK-8) is reported as “very sensitive”. The “proliferation of Daudi cells” value in experiment [4] (10 μM, 24 h and 48 h, CCK-8) is on record as “significantly inhibited”. The figures for the IC50 in [4] (Daudi cells) and in experiment [14] were roughly 6 µM and less than 1 µM, respectively. In experiment [5], the “proliferation of THP-1 cells” value is listed as “significantly inhibited”. Also, in experiment [6], the H3K27me3 level entry was “significantly down-regulated”. In addition, the cell migration entry in [7] is recorded as “did not effectively inhibit cell migration”. Also, the induction of apoptosis result in experiment [8] is listed as “limited capability to induce apoptosis”. For the same compound, the “levels of fatty acids (five polyunsaturated, one monounsaturated)” value in experiment [9] is “increased”. The “mRNA and protein levels of ACLY, FASN, and SCD” value in experiment [10] and in experiment [11] was “significantly elevated” throughout. Further, the down-regulated metabolites in experiment [12] came out at 6. In [12], the “fatty acids (incl. ricinoleic acid, DPA n-6)” value was “four fatty acids decreased”. In addition, the “metabolites with significant changes and VIP values greater than 1.0” value in experiment [12] is 71. In addition, in experiment [12], the up-regulated metabolites was 65. Further, the “expression of ELOVL2, SCD1, and FASN” value in [13] is “did not upregulate”.
As to `CCCCCCCCCCCCCCCC(=O)O` [palmitic acid], the “cell proliferation (viability) on fatty acid addition” value in experiment [4] (Daudi cells, CCK-8) was “moderately promoted”. Also, the “cell viability inhibited by GSK126, on fatty acid supplementation” value in [4] (Daudi cells) is “recovered the cell viability inhibited by GSK126 to varying degrees”.
For `CCCCCCCCCCCCCCCCCC(=O)O` [stearic acid], in that order: “moderately promoted” and “recovered the cell viability inhibited by GSK126 to varying degrees”.
